Here are results for 1 compound from PubChem BioAssay AID651890 (Broad Institute, 2012).

Each structure is given as a SMILES string.

In this assay the test system is T. cruzi Tulahuen amastigotes in L-6 cells, CPRG absorbance. The assay is described as follows: intracellular Chagas parasite inhibition in myoblasts – Tulahuen strain, L-6 host cells, dry powder, dose response (AID 651890).

As for `C[C@@H]1CN([C@@H](C)CO)C(=O)c2cccc(NC(=O)c3ccncc3)c2O[C@H]1CN(C)Cc1ccc(Oc2ccccc2)cc1`, the IC50 was 39 nM.

The IC50 is the concentration that gives 50% inhibition.
